Experiments:
human HSP72 [1] = target: T1, human HSP72 (Homo sapiens, UniProt P0DMV8); test: Fluorescence polarisation KD determination of probes, HSP72; type: binding; details: for pKD: human HSP72, geometric mean ± SEM, 3 measurements; for Kd: human HSP72 titrated against fixed probe concentration, geometric mean of 3
T1 construct: 6xHis (N); human rhinovirus 3C protease cleavage site (N); made in house; host or cells: E. coli BL21-AI
Description: (§1) Unless otherwise stated the aqueous assay buffer contained 50 mM TRIS base pH 7.4, 150 mM NaCl, 6 mM MgCl2, 1 mM DTT, 0.1% (wt/wt) CHAPS. The assay was conducted using 384 Plus F ProxiPlates (PerkinElmer) with a final assay volume of 10 μL. Plates were centrifuged at 1000 rpm for 1 minute prior to incubation and read using an 2103 Envision Multilable Plate Reader. Excitation and emission wavelengths used for green probes were 480 nm and 535 nm, respectively. Excitation and emission wavelengths used for red probes were 620 nm and 688 nm, respectively. Fluorescence polarisation was measured in units of millipolarization (mP). All experiments were performed in triplicate, except for experiments with ATP-Cy5 and apoptozole-Cy5, which were performed in duplicate. Data were plotted and analyzed using GraphPad Prism 6, graphical data represents the geometric mean ± standard error of the mean for a single representative experiment.
(§2) To each well, 5 μL of probe molecule (20 nM in assay buffer) and increasing concentrations of HSP70 protein (5 μL, two-fold dilution series) were added. Fluorescence polarisation values for tracer control wells (10 nM probe in assay buffer only) were subtracted from each data point prior to data analysis. KD determination was performed using non-linear regression analysis (GraphPad Prism 6, one site–specific binding model).

human HSP72 [2] = target: T1, human HSP72; test: Fluorescence polarisation competitive binding with ATP-FAM probe; details: for IC50: displacement of ATP-FAM (10 nM) from human HSP72, geometric mean of 3; for pIC50: displacement of ATP-FAM from human HSP72, geometric mean ± SEM, 3 measurements
Description: as §1
Compounds (0.2 μL at 50 x screening concentration in DMSO) were dispensed using an ECHO 550 Liquid Handler (labcyte Inc.). To the corresponding wells was added, 5 μL of probe molecule (20 nM in assay buffer) and 5 μL of protein (two times their final concentration in assay buffer) to give a 50% bound fraction.[30] Tracer controls (10 nM probe molecule only) and bound tracer controls (10 nM probe in the presence of appropriate protein concentration) were included on each assay plate. IC50 determination was performed using non-linear least squares curve fitting (GraphPad Prism 6, log(inhibitor) vs. response—variable slope (four parameters)).

rat HSP72 [3] = target: T2, rat HSP72 (Rattus norvegicus, UniProt P0DMW0); test: SPR Procedure A, biotinylated apoptozole 4 on neutravidin chip, rat HSP72; type: binding; details: rat HSP72 31–500 nM, control subtracted
T2 construct: purchased Enzo Life Sciences
T2 sequence (P0DMW0 2-641 limits assumed): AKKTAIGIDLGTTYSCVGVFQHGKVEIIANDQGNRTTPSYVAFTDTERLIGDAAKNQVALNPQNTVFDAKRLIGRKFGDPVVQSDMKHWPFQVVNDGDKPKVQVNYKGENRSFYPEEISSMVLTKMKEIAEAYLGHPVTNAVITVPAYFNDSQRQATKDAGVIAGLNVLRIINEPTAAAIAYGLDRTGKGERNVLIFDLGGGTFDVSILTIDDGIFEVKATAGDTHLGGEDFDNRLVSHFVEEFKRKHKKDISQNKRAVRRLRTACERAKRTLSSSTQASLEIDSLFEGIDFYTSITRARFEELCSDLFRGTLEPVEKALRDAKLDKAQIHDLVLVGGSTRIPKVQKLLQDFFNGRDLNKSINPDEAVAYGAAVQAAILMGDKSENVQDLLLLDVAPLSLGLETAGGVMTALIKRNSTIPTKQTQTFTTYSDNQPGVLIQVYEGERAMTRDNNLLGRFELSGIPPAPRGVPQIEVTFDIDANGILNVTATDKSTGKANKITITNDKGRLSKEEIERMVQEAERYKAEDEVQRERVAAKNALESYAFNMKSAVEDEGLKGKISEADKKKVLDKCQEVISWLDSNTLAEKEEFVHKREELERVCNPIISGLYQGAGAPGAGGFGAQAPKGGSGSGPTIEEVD
Description: (§3) SPR analysis was performed on a Biacore T200 (GE Healthcare) at 25°C at a flow rate of 30 μL/min. The running buffer contained 1 x PBS and was prepared from 10 x concentrated PBS (GE Healthcare) on the day of use. Series S Sensor Chip CM5 was purchased from GE Healthcare, stored at […] and brought to room temperature prior to use.
(§4) The sensor chip was activated by injection of a 1:1 mixture of 500 mM NHS and 200 mM EDC for 420 seconds. Neutravidin (50 μg/mL in 10 mM sodium acetate buffer, pH 5.5) was injected across the chip surface for 60 seconds, followed by injection of 1 mM ethanolamine (pH 8.5) for 420 seconds. Biotinylated-apoptozole 4 (100 μM in 1:1 DMSO/PBS) was injected over the chip surface for 420 seconds. Human and rat HSP72 (500 nM in PBS) were injected at concentrations of 31–500 nM, injection time: 60 seconds, dissociation time: 60 seconds. The control lane was subjected to the conditions described above but derivatization with biotinylated apoptozole 4 was omitted.

human HSP72 [4] = target: T1, human HSP72; test: SPR Procedure A, biotinylated apoptozole 4 on neutravidin chip, human HSP72; type: binding; details: human HSP72 31–500 nM, control subtracted
Description: as §3, §4

human HSP72 [5] = target: T1, human HSP72; test: SPR Procedure B, apoptozole derivative 6 bound directly to CM5 chip; type: binding; details: three immobilisation levels, HSP72 up to 32 μM
Description: as §3
The sensor chip was activated by injection of a 1:1 mixture of 500 mM NHS and 200 mM EDC for 420 seconds. Apoptozole derivative 6 (100 μM in 1:1 DMSO/PBS) was injected over the chip surface, to give immobilization levels of approximately 4000, 8000 and 12000 RU. Ethanolamine (1 mM, pH 8.5) was then injected over the chip surface for 420 seconds. Human HSP72 (32 μM in PBS) was injected at concentrations of 62 nM–32 μM, injection time: 60 seconds, dissociation time: 60 seconds. The control lane was subjected to the conditions described above but derivatization with apoptozole derivative 6 was omitted.

HSP70 = test system: HSP70; design: method as in PMID 24265689; details: cited from earlier work
[6] = Dynamic light scattering (aggregation under aqueous conditions); type: physicochemical
Description: Apoptozole and VER-155008 (10 mM in DMSO) were diluted in 1 x PBS buffer with a final DMSO concentration of 2%, ± 0.01% v/v Triton X-100. Measurements were performed using a Protein Solutions DynaPro (Wyatt Technology) at room temperature. Data were acquired and processed by the software Dynamics, version 6.10 and calculation of particle radius performed by the cumulant analysis tool. The detector angle was 90°, the laser power was set to 30% and the integration time was 150 s. Each radius value presents three independent measurements, values are quotes as arithmetic mean ± standard error of the mean.

human HSC70 = target: T3, human HSC70 (Homo sapiens, UniProt P11142); test: Fluorescence polarisation KD determination of probes, HSC70; type: binding; details: single determination
T3 construct: purchased Abcam
T3 sequence (P11142 whole entry): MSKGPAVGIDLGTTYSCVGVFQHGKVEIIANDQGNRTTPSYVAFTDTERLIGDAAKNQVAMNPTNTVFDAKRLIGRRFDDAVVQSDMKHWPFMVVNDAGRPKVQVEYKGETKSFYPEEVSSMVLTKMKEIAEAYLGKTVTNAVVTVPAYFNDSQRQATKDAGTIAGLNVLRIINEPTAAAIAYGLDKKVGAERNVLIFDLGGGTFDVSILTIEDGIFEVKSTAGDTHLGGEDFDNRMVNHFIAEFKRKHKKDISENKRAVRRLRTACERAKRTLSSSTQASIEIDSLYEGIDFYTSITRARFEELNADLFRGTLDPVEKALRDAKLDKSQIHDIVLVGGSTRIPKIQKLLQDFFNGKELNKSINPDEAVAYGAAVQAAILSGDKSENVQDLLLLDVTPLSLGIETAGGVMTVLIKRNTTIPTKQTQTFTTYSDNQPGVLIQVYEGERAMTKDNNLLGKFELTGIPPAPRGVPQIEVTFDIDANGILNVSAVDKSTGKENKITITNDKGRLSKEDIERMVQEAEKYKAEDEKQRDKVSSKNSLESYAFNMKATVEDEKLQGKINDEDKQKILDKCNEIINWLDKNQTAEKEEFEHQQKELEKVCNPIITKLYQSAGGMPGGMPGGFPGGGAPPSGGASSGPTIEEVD
Description: as §1, §2

rat HSP72 [7] = target: T2, rat HSP72; design: method as in PMID 18729127; details: SPR; cited from earlier work
A549 = test system: A549; design: method as in PMID 18729127; details: cited from earlier work
HCT-15 = test system: HCT-15; design: method as in PMID 18729127; details: cited from earlier work
bovine HSC70 = target: bovine HSC70; design: method as in PMID 18729127; details: SPR; cited from earlier work
SK-OV-3 = test system: SK-OV-3; design: method as in PMID 18729127; details: cited from earlier work
[8] = 10 μM, without Triton X-100, PBS 2% DMSO

T1 sequence (P0DMV8 whole entry): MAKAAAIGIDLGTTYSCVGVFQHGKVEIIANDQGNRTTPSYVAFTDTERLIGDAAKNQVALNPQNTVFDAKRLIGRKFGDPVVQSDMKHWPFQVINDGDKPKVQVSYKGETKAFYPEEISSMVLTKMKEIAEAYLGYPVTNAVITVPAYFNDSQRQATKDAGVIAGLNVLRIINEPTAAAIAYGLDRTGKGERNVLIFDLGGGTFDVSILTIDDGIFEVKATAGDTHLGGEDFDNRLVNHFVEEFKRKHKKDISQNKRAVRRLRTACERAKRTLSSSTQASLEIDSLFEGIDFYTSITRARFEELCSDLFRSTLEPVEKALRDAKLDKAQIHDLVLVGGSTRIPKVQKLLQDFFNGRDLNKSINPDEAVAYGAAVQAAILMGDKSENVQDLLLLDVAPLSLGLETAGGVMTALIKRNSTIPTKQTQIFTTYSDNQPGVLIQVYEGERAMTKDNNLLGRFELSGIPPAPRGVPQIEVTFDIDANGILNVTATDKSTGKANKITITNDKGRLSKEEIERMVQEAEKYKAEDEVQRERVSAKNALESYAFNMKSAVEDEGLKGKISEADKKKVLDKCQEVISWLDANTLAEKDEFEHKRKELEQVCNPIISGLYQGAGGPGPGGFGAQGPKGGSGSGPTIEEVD

N^6-(6-Amino)hexyl-ATP-Cy5
pKD (human HSP72 [1]): 5.95 ± 0.02 | Kd (human HSP72 [1]): 1100 nM

Nc1ncnc2c1ncn2[C@@H]1O[C@H](COP(=O)(O)OP(=O)(O)OP(=O)(O)O)[C@@H](O)[C@H]1O [ATP]
IC50 (human HSP72 [2]): 1200 nM | pIC50 (human HSP72 [2]): 5.94 ± 0.05

COc1ccc(-c2nc(-c3cc(C(F)(F)F)cc(C(F)(F)F)c3)n(Cc3ccc(C(=O)NCCOCCOCCNC(=O)CCC(=O)NCCOCCOCCNC(=O)CCCC[C@@H]4SC[C@@H]5NC(=O)N[C@@H]54)cc3)c2-c2ccc(OC)cc2)cc1 [compound 4, N^1-(2-(2-(2-(4-((2-(3,5-Bis(trifluoromethyl)phenyl)-4,5-bis(4-methoxyphenyl)-1H-imidazol-1-yl)methyl)benzamido)ethoxy)ethoxy)ethyl)-N^4-(2-(2-(2-(5-((3aS,4S,6aR)-2-oxohexahydro-1H-thieno[3,4-d]imidazol-4-yl)pentanamido)ethoxy)ethoxy)ethyl)succinamide]
Binding interaction (SPR) (rat HSP72 [3]): no evidence of binding interactions | Binding interaction (SPR) (human HSP72 [4]): no evidence of binding interactions

COc1ccc(-c2nc(-c3cc(C(F)(F)F)cc(C(F)(F)F)c3)n(Cc3ccc(C(=O)NCCOCCOCCNC(=O)CCC(=O)NCCOCCOCCN)cc3)c2-c2ccc(OC)cc2)cc1 [compound 6, N^1-(2-(2-(2-Aminoethoxy)ethoxy)ethyl)-N^4-(2-(2-(2-(4-((2-(3,5-bis(trifluoromethyl)phenyl)-4,5-bis(4-methoxyphenyl)-1H-imidazol-1-yl)methyl)benzamido)ethoxy)ethoxy)ethyl)succinamide]
Binding interaction (SPR) (human HSP72 [5]): no binding interactions were observed

pifithrin-μ
Mode of binding to HSP70 (HSP70): unspecific, detergent-like way

N#Cc1ccc(COC[C@H]2O[C@@H](n3c(NCc4ccc(Cl)c(Cl)c4)nc4c(N)ncnc43)[C@H](O)[C@@H]2O)cc1 [VER-155008]
Aggregate formation ([6]; 10 μM): no evidence of aggregate formation | Intensity ([6]; 10 μM, with 0.01% Triton X-100): 318.2 ± 61.3 kcps | Radius ([6]; 10 μM, with 0.01% Triton X-100): 101.1 ± 9.0 nm | Intensity ([6]; 10 μM, without Triton X-100): 63.2 ± 5.8 kcps | Radius [6, 8]: 88.5 ± 8.3 nm | IC50 (human HSP72 [2]): 490 nM | pIC50 (human HSP72 [2]): 6.31 ± 0.06

N^6-(6-Amino)hexyl-ATP-6-FAM [ATP-FAM]
pKD (human HSP72 [1]): 6.50 ± 0.04 | Kd (human HSP72 [1]): 320 nM | Kd (human HSC70): 970 nM

COc1ccc(-c2nc(-c3cc(C(F)(F)F)cc(C(F)(F)F)c3)n(Cc3ccc(C(N)=O)cc3)c2-c2ccc(OC)cc2)cc1 [apoptozole]
Kd (rat HSP72 [7]): 140 nM | GI50 (A549): 130 nM | Intensity ([6]; 1 μM, without Triton X-100): 132.6 ± 39.7 kcps | Radius ([6]; 1 μM, without Triton X-100): 89.3 ± 5.8 nm | Intensity ([6]; 5 μM, without Triton X-100): 1047.5 ± 183.1 kcps | Radius ([6]; 5 μM, without Triton X-100): 454.4 ± 36.4 nm | Intensity ([6]; 10 μM, with 0.01% Triton X-100): 2350.0 ± 173.1 kcps | Radius ([6]; 10 μM, with 0.01% Triton X-100): 86.5 ± 2.1 nm | Intensity ([6]; 10 μM, without Triton X-100): 1441.1 ± 186.5 kcps | Radius [6, 8]: 521.5 ± 30.9 nm | Concentration at which large colloidal aggregates form ([6]; aqueous conditions): ≥ 5 µM | Particle radius ([6]; concentrations ≥ 5 μM, without detergent): > 450 nm | GI50 (HCT-15): 250 nM | Kd (bovine HSC70): 210 nM | ATP-competitive binding (displacement of ATP-FAM probe) (human HSP72 [2]; concentrations up to 80 μM): no displacement of the ATP-FAM probe observed | GI50 (SK-OV-3): 220 nM

Nc1ncnc2c1ncn2[C@@H]1O[C@H](COP(=O)(O)OP(=O)(O)O)[C@@H](O)[C@H]1O [ADP]
IC50 (human HSP72 [2]): 670 nM | pIC50 (human HSP72 [2]): 6.17 ± 0.11
